Legend:
Test in all cases: relative viability (nuclei count vs DMSO), 5 days (fraction); higher = more cells survive
[1] = compound: O=C(/C=C/c1ccccc1)NC(NC(=S)Nc1cccc2cccnc12)C(Cl)(Cl)Cl [Salubrinal] + C[C@]1(O)C[C@@H](c2nc(-c3ccc4ccc(-c5ccccc5)nc4c3)c3c(N)nccn32)C1 [Linsitinib] (partner 1 µM)
Procedure, shortened: (§1)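 One day after seeding in 1536-well plates, lung cancer cell lines were dosed by pin tool. Dosing was either single-drug or a fixed anchor-drug dose plus five library-drug doses (not always all listed) in √10 steps. After 5 days, nuclei were stained in one fix-and-stain step and counted on 4× images, and relative viability is the nuclei count of treated wells over that of vehicle wells, given as the median of duplicate plates.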

[2] = compound: Cc1ccc2nc(NCCN)c3ncc(C)n3c2c1 + CC(=O)c1c(C)c2cnc(Nc3ccc(N4CCNCC4)cn3)nc2n(C2CCCC2)c1=O [Palbociclib] (partner 0.5 µM)
Procedure, shortened: as §1

[3] = compound: O=C(/C=C/c1ccccc1)NC(NC(=S)Nc1cccc2cccnc12)C(Cl)(Cl)Cl [Salubrinal] + C[C@@H](Oc1cc(-c2cnn(C3CCNCC3)c2)cnc1N)c1c(Cl)ccc(F)c1Cl [Crizotinib] (partner 1 µM)
Procedure, shortened: as §1

[4] = compound: Cc1ccc2nc(NCCN)c3ncc(C)n3c2c1 + CC1(C)CCC(c2ccc(Cl)cc2)=C(CN2CCN(c3ccc(C(=O)NS(=O)(=O)c4ccc(N[C@H](CCN5CCOCC5)CSc5ccccc5)c(S(=O)(=O)C(F)(F)F)c4)cc3)CC2)C1 [Navitoclax] (partner 0.5 µM)
Procedure, shortened: as §1

Cell Line	relative viability ([1]; first compound 0.08 µM)	relative viability ([1]; first compound 0.253 µM)	relative viability ([1]; first compound 0.8 µM)	relative viability ([1]; first compound 2.53 µM)	relative viability ([1]; first compound 8 µM)	relative viability ([2]; first compound 0.04 µM)	relative viability ([2]; first compound 0.1265 µM)	relative viability ([2]; first compound 0.4 µM)	relative viability ([2]; first compound 1.265 µM)	relative viability ([2]; first compound 4 µM)	relative viability ([3]; first compound 0.08 µM)	relative viability ([3]; first compound 0.253 µM)	relative viability ([3]; first compound 0.8 µM)	relative viability ([3]; first compound 2.53 µM)	relative viability ([3]; first compound 8 µM)	relative viability ([4]; first compound 0.04 µM)	relative viability ([4]; first compound 0.1265 µM)	relative viability ([4]; first compound 0.4 µM)	relative viability ([4]; first compound 1.265 µM)	relative viability ([4]; first compound 4 µM)
201T	1.04	0.982	1.09	1.07	0.97	0.396	0.367	0.33	0.363	0.323	0.997	1	1.05	1.01	1.02	1.25	1.22	1.14	1.17	1.23
A549	0.709	0.568	0.669	0.558	0.54	–	–	–	–	–	0.864	0.491	0.902	0.702	0.695	1.27	1.25	1.37	1.2	0.955
A-427	1.12	1.2	1.1	1.08	1.22	0.531	0.485	0.496	0.506	0.555	0.896	0.899	1.05	0.85	0.895	0.914	0.864	0.946	1.02	0.968
ABC-1	0.802	0.753	0.76	0.952	0.781	0.785	0.792	0.887	0.649	0.538	1.23	0.919	1.22	1.25	1.02	–	–	–	–	–
BEN	1.15	0.624	1.23	0.931	0.892	0.506	0.484	0.479	0.465	0.48	1.02	0.734	0.996	0.858	0.852	0.0603	0.0647	0.0665	0.0492	0.0759
CAL-12T	0.754	0.883	0.971	0.806	0.726	0.499	0.47	0.39	0.376	0.48	0.661	0.484	0.806	0.48	0.446	1.26	1.14	1.25	1.33	1.17
COR-L23	1.16	0.676	1.24	1	0.888	0.383	0.301	0.323	0.318	0.323	0.749	0.775	0.699	0.563	0.492	1.05	0.944	1.1	0.973	0.886
COR-L 105	1.04	1.03	0.737	0.953	0.776	0.374	0.414	0.43	0.4	0.438	0.962	0.624	0.76	0.772	0.689	0.809	0.802	0.802	0.899	0.698
Calu-6	0.983	0.842	1.08	0.928	0.992	–	–	–	–	–	0.949	0.644	0.898	0.821	0.728	0.829	0.799	1.05	0.807	0.321
ChaGo-K-1	–	–	–	–	–	0.929	0.919	0.919	0.891	0.907	1.25	0.927	1.44	1.1	0.929	0.983	1.15	0.913	0.976	0.782
EBC-1	0.767	0.844	1.03	0.873	0.897	–	–	–	–	–	0.207	0.214	0.22	0.211	0.18	0.388	0.393	0.327	0.334	0.191
EKVX	1.4	0.744	1.15	1.01	0.856	0.441	0.358	0.36	0.351	0.295	1.16	0.811	0.971	0.974	1.07	1.1	0.964	0.924	0.992	0.883
EMC-BAC-2	0.901	0.682	0.856	0.77	0.858	0.55	0.536	0.509	0.521	0.486	0.749	0.676	0.811	0.721	0.76	1.17	1.18	1.06	1.15	1.17
EPLC-272H	1.19	0.832	1.37	1.27	1.05	0.337	0.348	0.315	0.257	0.249	0.976	0.839	0.887	1.03	0.949	1.01	1.09	1.17	1.04	0.93
H3255	0.982	0.905	1.2	1.04	0.974	0.329	0.298	0.312	0.327	0.317	1.16	0.823	1.12	0.804	0.775	0.666	0.479	0.638	0.535	0.469
HARA	1.09	0.905	0.936	0.898	0.99	0.2	0.236	0.237	0.222	0.268	1.21	0.911	1.03	1.14	0.868	1.16	1.15	1.14	1.08	1.21
HCC-15	0.946	0.801	0.952	0.964	0.87	0.789	0.773	0.616	0.708	0.485	0.984	0.651	0.946	0.883	0.785	0.702	0.732	0.684	0.677	0.675
HCC-44	0.761	0.754	0.731	0.703	0.65	0.934	0.94	0.914	0.894	0.99	0.833	0.801	0.863	0.748	0.759	1.1	0.901	0.951	0.829	0.937
HCC-78	0.59	0.558	0.796	0.481	0.508	0.499	0.475	0.484	0.437	0.369	0.363	0.325	0.398	0.308	0.302	0.919	0.8	0.778	0.757	0.689
HCC-366	1.01	0.408	0.883	0.671	0.57	0.409	0.392	0.343	0.382	0.352	0.798	0.437	0.777	0.393	0.55	1.26	1.07	1.03	0.997	1.02

Cell Line	relative viability ([1]; first compound 0.08 µM)	relative viability ([1]; first compound 0.253 µM)	relative viability ([1]; first compound 0.8 µM)	relative viability ([1]; first compound 2.53 µM)	relative viability ([1]; first compound 8 µM)	relative viability ([2]; first compound 0.04 µM)	relative viability ([2]; first compound 0.1265 µM)	relative viability ([2]; first compound 0.4 µM)	relative viability ([2]; first compound 1.265 µM)	relative viability ([2]; first compound 4 µM)	relative viability ([3]; first compound 0.08 µM)	relative viability ([3]; first compound 0.253 µM)	relative viability ([3]; first compound 0.8 µM)	relative viability ([3]; first compound 2.53 µM)	relative viability ([3]; first compound 8 µM)	relative viability ([4]; first compound 0.04 µM)	relative viability ([4]; first compound 0.1265 µM)	relative viability ([4]; first compound 0.4 µM)	relative viability ([4]; first compound 1.265 µM)	relative viability ([4]; first compound 4 µM)
HCC-827	0.992	0.9	1	0.97	0.941	0.437	0.517	0.473	0.501	0.495	0.901	0.921	0.992	0.475	0.844	1.03	0.969	1.03	1.05	0.984
HOP-62	1.07	0.918	1.1	0.977	0.998	0.424	0.436	0.475	0.469	0.464	1.04	0.965	1.21	0.914	0.26	0.956	1.05	0.859	1	0.954
IA-LM	0.256	0.472	0.704	0.519	1.09	–	–	–	–	–	0.784	0.602	1.19	0.767	0.575	0.792	0.779	0.707	0.623	0.587
LC-2-ad	0.932	0.812	0.912	0.817	0.844	0.469	0.524	0.482	0.51	0.452	0.447	0.385	0.537	0.471	0.459	0.404	0.431	0.491	0.526	0.508
LCLC-103H	1.14	1	1.02	1.22	1.01	0.463	0.462	0.428	0.497	0.488	1.07	1.06	1.05	1.07	0.984	–	–	–	–	–
NCI-H358	0.77	0.693	0.76	0.773	0.637	0.122	0.121	0.123	0.145	0.131	0.559	0.553	0.506	0.51	0.478	–	–	–	–	–
NCI-H522	–	–	–	–	–	0.83	1.17	1.01	1.04	0.87	–	–	–	–	–	–	–	–	–	–
NCI-H596	1.07	0.936	1.17	1.1	0.903	–	–	–	–	–	1.07	0.901	1.07	1.02	1.05	0.945	0.896	0.916	0.678	1.11
NCI-H650	0.778	0.772	0.99	0.959	0.756	0.368	0.316	0.258	0.304	0.332	0.701	0.656	0.792	0.637	0.765	–	–	–	–	–
NCI-H661	0.701	0.464	0.509	0.561	0.464	0.423	0.452	0.407	0.439	0.477	0.934	–	1.1	1.01	1.17	–	–	–	–	–
NCI-H1299	0.964	0.876	1.09	1	0.96	–	–	–	–	–	0.993	0.802	0.943	0.99	0.925	1.02	1.04	1.06	1.02	0.898
NCI-H1395	1.31	1.12	1.09	0.998	1.15	0.647	0.613	0.597	0.546	0.557	–	–	–	–	–	1.27	1.13	1.31	1	1.1
NCI-H1563	1.1	1.26	1.14	1.21	1.12	–	–	–	–	–	0.853	0.859	0.878	0.851	0.962	–	–	–	–	–
NCI-H1648	–	–	–	–	–	0.272	0.27	0.237	0.25	0.282	–	–	–	–	–	–	–	–	–	–
NCI-H1650	–	–	–	–	–	0.303	0.375	0.324	0.349	0.226	1.06	0.859	1.02	0.882	0.942	1.3	1	1.12	1.25	0.934
NCI-H1703	0.515	0.997	0.712	0.685	0.644	–	–	–	–	–	0.535	–	1.06	0.701	0.576	1.3	0.881	1	1.18	0.707
NCI-H1793	1.1	0.798	1.04	0.795	0.636	0.303	0.328	0.283	0.312	0.318	–	–	–	–	–	0.467	0.417	0.418	0.477	0.476
NCI-H2170	–	–	–	–	–	0.388	0.445	0.356	0.381	0.342	1.45	1.06	1.38	1.26	1.21	0.687	0.659	0.59	0.601	0.598
NCI-H2342	–	–	–	–	–	0.626	0.552	0.479	0.532	0.531	–	–	–	–	–	–	–	–	–	–
SW 900	–	–	–	–	–	–	0.522	0.587	0.464	0.589	–	–	–	–	–	–	–	–	–	–

Reference: the supplement of paper PMC10307832
